The values below come from US20100130737A1, “Regulating Agent of GPR34 Receptor Function” (TAKEDA PHARMACEUTICAL COMPANY LIMITED, priority 2005, published 2010).

For data set [1], the target named is human GPR34 (Homo sapiens, UniProt Q9UPC5). Kind of data set: Human GPR34 antagonist activity indicated by changes in intracellular calcium concentration (FLIPR). The note with it: CHO cells expressing human GPR34/Gα16, against 2 μM lysoPS final concentration, Fluo-3AM. Type of data set: cell-based. Also on record: expressed in transfected cells; host or cells: CHO cells (human GPR34CHO line) stably transfected with pCR3.1 human lung Gα16. On the procedure:
CHO cells expressing human GPR34/Gα were diluted to 3×10^4/100 μl in cell culture medium [nucleic acid-free Minimum Essential Alpha Medium (Invitrogen) containing 10% dialyzed fetal bovine serum (Invitrogen) 0.5 mg/ml Geneticin (Invitrogen), penicillin and streptomycin (Invitrogen)], dispensed 100 μl per well into a Black walled 96-well plate (Costar), and cultured overnight in a CO2 incubator. Changes in intracellular calcium concentration were measured with a FLIPR (Molecular Device) by the methods described below.
50 μg of Fluo-3AM (Dojindo) was dissolved in 21 μl of DMSO (Dojindo), an equal amount of 20% pluronic acid (Molecular Probes) was added and mixed, and this was added to 10.6 ml of assay buffer [prepared by adding 20 ml of 1 M HEPES (pH 7.4, Dojindo) to HBSS (Invitrogen), and then adding 10 ml of a solution obtained by dissolving 710 mg of Probenecid (Sigma) in 5 ml of 1 N NaOH and then adding and mixing 5 ml of the HBSS/HEPES solution)] with 105 μl of fetal bovine serum added thereto to prepare a fluorescent dye solution. The medium was removed from the cell plate, 100 μl per well of the fluorescent dye solution was immediately poured in, and the cells were cultured for 1 hour in a CO2 incubator to incorporate the fluorescent dye into the cells. After culture, the cells were washed with the aforementioned assay buffer. The compound was dissolved in DMSO (Wako Pure Chemical), diluted with DMSO as necessary, added to the aforementioned assay buffer to the target concentration and poured into the plate. To measure antagonist activity, 8 μM lysophosphatidyl serine (lysoPS, Alexis) solution (2 μM final concentration during reaction) was poured into the plate, which was set in the FLIPR. Following these preliminaries, the agonist effect was measured in the FLIPR by measuring changes in intracellular calcium concentration up to 180 seconds after addition of the sample, and after 200 seconds lysoPS was added and the antagonist effect was measured. In the case of the agonist effect, the EC50 value of the added compound was calculated from the dose reaction curve using changes in fluorescent strength from 0 to 180 seconds after the start of the reaction. In the case of the antagonist effect, the IC50 was calculated from the dose reaction curve using changes in maximum fluorescent strength after 200 to 380 seconds of reaction time. The data was analyzed using “GraphPad PRISM4”.

The test system of data set [2] is rat peritoneal mast cells. Briefly: Degranulation inhibiting activity in rat peritoneal mast cells (β-hexosaminidase release). The conditions noted are these: 10 μM compound; co-stimulation with 3 μM LysoPS and 100 ng/ml DNP-BSA = 100%, spontaneous degranulation = 0%. Type of data set: cell-based. The method, then:
Ice-cooled mast cell medium (hereunder called MCM: 150 mM NaCl, 3.7 mM KCl, 3.0 mM NaH2PO4, 3.5 mM KH2PO4, 5.6 mM (D)-Glucose, 0.1% bovine serum albumin (BSA), 0.1% gelatin, 10 U/ml heparin, pH 6.8) was injected intraperitoneally into rats, about 40 ml per rat, the abdomens were massaged for about 2 minutes and then opened along the median line, and ascites was collected. The collected ascites were filtered with a cell strainer (Becton Dickinson) and centrifuged for 7 minutes at 50×g, and the precipitated cells were suspended in MCM and then centrifuged again for 7 minutes at 50×g. The precipitated cells were suspended in 5 ml of MCM, layered over 2 ml of 32% (w/v) BSA solution (dissolved in 0.9% NaCL), and left for 20 minutes at room temperature. This was centrifuged for 15 minutes at room temperature at 300×g, the cells between the MCM and BSA solution were discarded, and the precipitated cells were suspended in MCM and washed twice by being centrifuged for 5 minutes at 300×g. The precipitated cells were suspended in assay buffer (150 mM NaCl, 3.7 mM KCl, 3.0 mM NaH2PO4, 3.5 mM KH2PO4, 0.9 mM CaCl2, 5.6 mM (D)-Glucose, 0.01% BSA, pH 6.8), and these cells were used in the following test.
RPMC cells suspended in assay buffer were passively sensitized by adding 10 μg/ml of monoclonal mouse anti-DNP-IgE (Seikagaku) and leaving them for 30 minutes on ice. After 5 minutes of centrifugation at 300×g, the precipitated cells were washed 3 times with assay buffer. The RPMC cells suspended in assay buffer were dispensed on 96-well V-bottom plates, 2×10^4 cells per well. The assay was performed with n=3 under each set of reaction conditions. The plates were maintained for 5 minutes at 37° C., the test compound was added, and after 15 minutes lysoPS (Sigma) was added to a final concentration of 3 μM and DNP-BSA (Calbiochem) to a final concentration of 100 ng/ml for a final capacity of 200 and left on a water bath at 37° C. After 20 minutes, the plate was ice cooled to stop RPMC activation, followed by 5 minutes of centrifugation at 300×g, and β-hexosaminidase activity in the supernatant was measured using 4-methylumbelliferyl-2-acetamido-2-deoxy-β-D-glucopyranoside (Wako Pure Chemical) degradation as the indicator.

Chain of human GPR34 (Q9UPC5 whole entry): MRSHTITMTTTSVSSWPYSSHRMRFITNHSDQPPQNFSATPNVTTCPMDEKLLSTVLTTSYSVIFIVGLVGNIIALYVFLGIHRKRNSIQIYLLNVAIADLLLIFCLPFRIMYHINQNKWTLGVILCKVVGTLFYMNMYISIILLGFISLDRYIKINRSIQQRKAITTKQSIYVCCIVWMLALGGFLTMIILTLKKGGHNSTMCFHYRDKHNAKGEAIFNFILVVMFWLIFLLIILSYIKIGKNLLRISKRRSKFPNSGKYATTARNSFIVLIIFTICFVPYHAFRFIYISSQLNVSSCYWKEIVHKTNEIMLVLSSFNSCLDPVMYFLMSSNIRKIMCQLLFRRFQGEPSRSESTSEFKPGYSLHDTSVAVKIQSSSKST

In turn, `O=C(N[C@@H](Cc1ccc(OCc2ccc(F)cc2)cc1)C(=O)O)c1cc2ccc(-c3ccc(Cl)cc3)cc2o1` [Example C157, N-{[6-(4-Chlorophenyl)-1-benzofuran-2-yl]carbonyl}-O-(4-fluorobenzyl) tyrosine] gave a melting point of 166 to 168 °C. Besides, in data set [1], the concentration for half-maximal inhibition (IC50) was at most 1 µM. The “degranulation of rat peritoneal mast cells due to LysoPS and DNP-BSA stimulation” value (“degranulation” below) in data set [2] worked out at 4.8%.

`CCc1ccc(COc2ccc(C[C@H](NC(=O)c3cn4ccc(-c5ccc(Cl)cc5)cc4n3)C(=O)O)cc2)cc1` [Example E65, N-{[7-(4-Chlorophenyl)imidazo[1,2-a]pyridin-2-yl]carbonyl}-O-(4-ethylbenzyl) tyrosine] displayed a melting point of 245 °C. Besides, in data set [1], the concentration for half-maximal inhibition (IC50) is at most 1 µM. The “degranulation” value in data set [2] turned out to be 8.8%.

In turn, `CCCOc1ccc(-c2ccc3sc(C(=O)N[C@@H](Cc4ccc(OCc5ccc(F)cc5)cc4)C(=O)O)cc3c2)cc1` [Example C131, O-(4-Fluorobenzyl)-N-{[5-(4-propoxyphenyl)-1-benzothiophene-2-yl]carbonyl}tyrosine] displayed a melting point of 211 to 212 °C. Further, in data set [1], the 50% inhibitory concentration (IC50) was at most 1 µM. The “degranulation” value in data set [2] is 10.2%.

Take `O=C(Cc1ccc(OCc2ccccc2)cc1)NC1(C(=O)O)Cc2ccc(-c3ccc(Cl)cc3)cc2C1` (stereo not shown) [Example B174, 2-({[4-(Benzyloxy)phenyl]acetyl}amino)-5-(4-chlorophenyl)indan-2-carboxylic acid]: the “degranulation” value in data set [2] is 8%.

Compound `O=C(N[C@@H](Cc1ccc(OCc2ccc(F)cc2)cc1)C(=O)O)c1cc2cc(-c3ccc(Cl)cc3)ccc2s1` [Example C133, N-{[5-(4-Chlorophenyl)-1-benzothiophene-2-yl]carbonyl}-O-(4-fluorobenzyl)tyrosine] showed a melting point of 189 to 190 °C. Moreover, the 50% inhibitory concentration (IC50) in data set [1] was at most 1 µM. In addition, in data set [2], the “degranulation” value was determined as 12.4%.

Compound `O=C(N[C@@H](Cc1ccc(OCc2ccc(Cl)cc2)cc1)C(=O)O)c1cn2ccc(-c3ccc(Cl)cc3)cc2n1` [Example E63, O-(4-Chlorobenzyl)-N-{[7-(4-chlorophenyl)imidazo[1,2-a]pyridin-2-yl]carbonyl}tyrosine] returned a melting point of 261 °C. Moreover, the IC50 in data set [1] was at most 1 µM. Moreover, the “degranulation” value in data set [2] is 5.7%.

Regarding `COC(=O)CC(=O)NC1(C(=O)O)Cc2ccc(-c3ccc(Cl)cc3)cc2C1` (stereo not shown) [Example B13], in data set [2], the “degranulation” value is reported as 10%.

With `O=C(NC(Cc1ccc(OCc2ccccc2)cc1)C(=O)O)c1cn2cc(CCc3ccccc3)ccc2n1` (stereo not shown) [Example E57, O-Benzyl-N-{[6-(2-phenethyl)imidazo[1,2-a]pyridin-2-yl]carbonyl}tyrosine], the melting point was 239 °C (dec.). Besides, in data set [2], the “degranulation” value turned out to be 8.3%.

In the case of `Cc1ccc(COc2ccc(C[C@H](NC(=O)c3cn4ccc(-c5ccc(Cl)cc5)cc4n3)C(=O)O)cc2)cc1` [Example E59, N-{[7-(4-Chlorophenyl)imidazo[1,2-a]pyridin-2-yl]carbonyl}-O-(4-methylbenzyl)tyrosine], the melting point was 262 °C. In addition, the IC50 in data set [1] is at most 1 µM. The “degranulation” value in data set [2] was determined as 5.1%.

Consider `Cc1c(C(=O)N[C@@H](Cc2ccc(OCc3ccccc3)cc2)C(=O)O)oc2cc(-c3ccc(Cl)cc3)ccc12` [Example C115, O-Benzyl-N-{[6-(4-chlorophenyl)-3-methyl-1-benzofuran-2-yl]carbonyl}-L-tyrosine], for which the melting point fell in the range of 143 to 144 °C. Moreover, the “degranulation” value in data set [2] is 20%.

In turn, `O=C(N[C@@H](Cc1ccc(OCc2ccccc2)cc1)C(=O)O)c1cn2cccc(OCc3ccc(Cl)cc3)c2n1` [Example E28, O-Benzyl-N-({8-[(4-chlorobenzyl)oxy]imidazo[1,2-a]pyridin-2-yl}carbonyl)tyrosine] came in with a melting point of 210 °C. In addition, in data set [1], the IC50 was at most 1 µM.

The compound `O=C(N[C@@H](Cc1ccc(OCc2ccccc2)cc1)C(=O)O)c1nc2ccc(-c3ccc(Cl)cc3)cc2[nH]1` [Example C167, O-Benzyl-N-{[6-(4-chlorophenyl)-1H-benzimidazol-2-yl]carbonyl}tyrosine] yielded a melting point of 260 to 261 °C. Further, the IC50 in data set [1] was at most 1 µM.

In turn, `O=C(N[C@@H](Cc1ccc(OCc2cccc(F)c2)cc1)C(=O)O)c1cc2ccc(-c3ccc(Cl)cc3)cc2o1` [Example C153, N-{[6-(4-Chlorophenyl)-1-benzofuran-2-yl]carbonyl}-O-(3-fluorobenzyl)tyrosine] yielded a melting point of 162 to 163 °C. For the same compound, in data set [1], the half-maximal inhibitory concentration (IC50) is at most 1 µM.

Consider `CN(C(=O)c1cn2ccc(-c3ccc(Cl)cc3)cc2n1)[C@@H](Cc1ccc(OCc2ccccc2)cc1)C(=O)O` [Example E51, O-Benzyl-N-{[7-(4-chlorophenyl)imidazo[1,2-a]pyridin-2-yl]carbonyl}-N-methyltyrosine], for which the melting point was found to be 222 °C. For the same compound, the 50% inhibitory concentration (IC50) in data set [1] was at most 1 µM. The “degranulation” value in data set [2] was 5.0%.

`O=C(N[C@@H](Cc1ccc(OCc2ccccc2)cc1)C(=O)O)c1cc2nccc(-c3ccc(Cl)cc3)n2n1` [Example E16, O-Benzyl-N-{[7-(4-chlorophenyl)pyrazolo[1,5-a]pyrimidin-2-yl]carbonyl}tyrosine] registered a melting point of 102 to 103 °C. In addition, the concentration for half-maximal inhibition (IC50) in data set [1] was at most 1 µM.

Take `Cn1c(C(=O)N[C@@H](Cc2ccc(OCc3ccccc3)cc2)C(=O)O)cc2cc(-c3ccc(Cl)cc3)ccc21` [Example C166, O-Benzyl-N-{[5-(4-chlorophenyl)-1-methyl-1H-indol-2-yl]carbonyl}tyrosine]: the melting point fell in the range of 238 to 239 °C. The IC50 in data set [1] was at most 1 µM.
